According to ChEMBL document CHEMBL2169792, “Synthesis of new 4-thiazolidinone-, pyrazoline-, and isatin-based conjugates with promising antitumor activity” (J Med Chem, 2012):

How the values were obtained:
Assay type in all cases: functional
[1] = Cytotoxicity against human non-small cell lung cancer cells after 48 hrs by SRB assay; conditions: Cancer cell lines; for CC50: read-out: LC50 (the source's name)
[2] = Cytotoxicity against human prostate cancer cells after 48 hrs by SRB assay; conditions: Cancer cell lines
[3] = Cytotoxicity against human breast cancer cells after 48 hrs by SRB assay; conditions: Cancer cell lines
[4] = Cytotoxicity against human renal cancer cells after 48 hrs by SRB assay; conditions: Cancer cell lines
[5] = Cytotoxicity against human melanoma cells after 48 hrs by SRB assay; conditions: Melanoma cell; for CC50: read-out: LC50 (the source's name)
[6] = Cytotoxicity against human ovarian cancer cells after 48 hrs by SRB assay; conditions: Cancer cell lines
[7] = Cytotoxicity against human CNS cancer cells after 48 hrs by SRB assay; conditions: Cancer cell lines
[8] = Cytotoxicity against human colon cancer cells after 48 hrs by SRB assay; conditions: Cancer cell lines
[9] = Cytotoxicity against human leukemia cells after 48 hrs by SRB assay; conditions: Leukemia cell; for CC50: read-out: LC50 (the source's name)
U-251 = test: Cytotoxicity against human U251 cells assessed as cell growth at 10 uM after 48 hrs by SRB assay; conditions: U-251, 48 h, read-out: Activity

SMILES	GI50 [1] [µM]	TGI [1] [µM]	CC50 [1] [µM]	GI50 [2] [µM]	LC50 [2] [µM]	TGI [2] [µM]	GI50 [3] [µM]	LC50 (concentration causing 50% net cell kill) [3] [µM]	TGI [3] [µM]	GI50 [4] [µM]	LC50 [4] [µM]	TGI [4] [µM]	GI50 [5] [µM]	TGI [5] [µM]	CC50 [5] [µM]	GI50 [6] [µM]	LC50 (concentration causing 50% net cell kill) [6] [µM]	TGI [6] [µM]	GI50 [7] [µM]	LC50 (concentration giving 50% net cell kill) [7] [µM]	other results
COc1ccc(C2=NN(C3=NC(=O)/C(=C4\C(=O)Nc5ccccc54)S3)C(c3ccc(OC)cc3)C2)cc1 (centres undefined)	88.1	91.5	100	100	100	100	81.5	100	99.6	85.2	100	100	100	100	100	92.2	100	100	43.9	100	TGI [7]: 89.2 µM; GI50 [8]: 100 µM; LC50 (concentration lethal to 50% of cells) [8]: 100 µM; TGI [8]: 100 µM; GI50 [9]: 100 µM; TGI [9]: 100 µM; CC50 [9]: 100 µM; growth at 10 µM (U-251): 44.7%
CN(C)c1ccc(C2CC(c3ccccc3)=NN2C2=NC(=O)/C(=C3\C(=O)Nc4ccc(Br)cc43)S2)cc1 (centres undefined)	0.22	0.54	17	0.27	55.3	0.72	0.22	18.7	0.51	0.2	7.47	0.45	0.2	0.46	7.65	0.25	39.6	0.69	0.21	12.3	TGI [7]: 0.45 µM; GI50 [8]: 0.2 µM; LC50 (concentration lethal to 50% of cells) [8]: 1.22 µM; TGI [8]: 0.42 µM; GI50 [9]: 0.31 µM; TGI [9]: 1.29 µM; CC50 [9]: 84.8 µM; growth at 10 µM (U-251): -51.1%
COc1ccc(C2CC(c3ccc4ccccc4c3)=NN2C2=NC(=O)/C(=C3\C(=O)Nc4ccccc43)S2)cc1 (centres undefined)	0.62	4.03	48.7	0.36	100	2.47	5.96	73.7	32.8	0.87	51.3	13.6	4.8	27	64.1	0.97	66.9	24.2	0.67	48.2	TGI [7]: 12.6 µM; GI50 [8]: 1.68 µM; LC50 (concentration lethal to 50% of cells) [8]: 38.3 µM; TGI [8]: 12.4 µM; GI50 [9]: 17.5 µM; TGI [9]: 59.6 µM; CC50 [9]: 97.5 µM; growth at 10 µM (U-251): -26.3%
